This assay deals with medium spiny neurons (MSNs) in the nucleus accumbens. Nature of the assay: Brain slice patch-clamp: intrinsic excitability and passive properties of MSNs. The class given is cell-based, male C57BL6/J mice. How it is done: Brain slices from male C57BL6/J mice aged 28–45 days were prepared to contain the nucleus accumbens (NAc). Mice were anesthetized with Isoflurane (Baxter, Deerfield, IL) and brains extracted following decapitation. Brains were sliced with a vibratome (Leica Microsystems, Wetzlar, Germany) to achieve 300 μm coronal slices. Brains sliced in extracellular salts; consisting of the following (mM): Tris‐HCl 72, Tris‐Base18, NaH2PO4 1.2, KCl 2.5, HEPES 20, sucrose 20, NaHCO3 25, glucose 25, MgSO4 10, Na‐pyruvate 3, Na‐ascorbate 5 and CaCl2 0.5 (Sigma‐Aldrich, St. Louis, MO); 300–310 mOsm, pH 7.4 and was continuously oxygenated (mixture of 95%/5% O2/CO2). Slices were then placed in a 32°C recovery chamber with freshly prepared tris‐based aCSF for 15 min before transfer to a 32°C chamber of standard aCSF consisting of the following extracellular salts (mM): NaCl 123.9, KCl 3.1, glucose 10, MgCl2 1, CaCl2 2, NaHCO3 24, and NaH2PO4 1.16 (Sigma‐Aldrich, St. Louis, MO); 300–310 mOsm, pH 7.4 and continuously oxygenated (mixture of 95%/5% O2/CO2). Finally, slices were equilibrated at RT for at least 45 min. DMSO and/or FLPK were added to standard aCSF to achieve a bath concentration of 0.1% DMSO and 50 μM FLPK. Brain slices were incubated in a separate chamber with standard aCSF containing 0.1% DMSO (control) or 50 μM FLPK and continuously oxygenated for 30 min. Somatic recordings from NAc visually identified medium spiny neurons (MSNs) in standard aCSF were carried out at 31°C using borosilicate glass pipettes (resistance of 3–5 MΩ) filled with an internal solution containing (mM): D‐gluconate (potassium salt) 145, MgCl2 2, EGTA 0.1, Na2ATP 2, and HEPES 10 (pH 7.2; 290 mOsm). Either an Axopatch 200B or a Multiclamp 700B amplifier was used to perform whole‐cell patch clamp experiments. For the Axopatch 200B, a digidata 1,200 analog–digital interface and pClamp 9 software with filtering at 20 kHz and digitizing at 5 kHz were used for data acquisition and stimulation. For the Multiclamp 700B, a digidata 1,350 analog‐digital interface and pClamp 10.9 with filtering at 20 kHz and digitizing at 5 kHz were used for data acquisition and stimulation. First a giga‐seal was formed and the cell membrane ruptured after which MSNs were held in […] for 1 min to measure resting membrane potential. Next, MSNs were held in current clamp mode to assess cell activity. Evoked action potentials with a range of current injections from 10 pA to 220 pA with 800 ms every 10 pA were measured and number of action potentials, instantaneous frequency, and other electrical parameters were determined. Average instantaneous firing frequency (IFF) is defined as the average of all reciprocal interspike intervals (ms) at a particular current step. Cells with a current threshold above 180 pA, a resting membrane potential above −60 mV, and an input resistance outside the range of 70–250 MΩ were excluded. To isolate persistent Na^+ current (I NaP) in whole‐cell voltage‐clamp recordings, we used a modified aCSF containing 20 mM tetraethylammonium chloride (TEA) and 0.3 mM CdCl2. The voltage‐dependence of I NaP was determined using standard protocols (Yue, Remy, Su, Beck, & Yaari, 2005). Membrane capacitances and Rseries were compensated electronically. Series resistances (Rs) before compensation were in the range of 5–20 MΩ and were routinely corrected by 75%–85%. Data obtained from a given cell were rejected if Rs was larger than 20 MΩ or changed by > 20% during the course of the experiment. Membrane capacitance was calculated using the equation: capacitance = membrane time constant/input resistance (Meitzen, Weaver, Brenowitz, & Perkel, 2009). The membrane input resistance was measured by a series of 600 ms hyperpolarizing current steps from −50 to 0 pA, step 10 pA with 1 s interval. The slope of the current‐voltage curve was designated as the membrane input resistance. […]
A general note: In patch-clamp work, channel activity is measured electrically.

“Also recorded” adds a separate entry of the source. Peptide text beside a SMILES is read from it.

Consider `CC(=O)N[C@@H](Cc1ccccc1)C(=O)N[C@@H](CC(C)C)C(=O)N1CCC[C@H]1C(=O)N[C@@H](CCCCN)C(N)=O` [FLPK] (Ac-FLPK-NH2), for which the “effect on MSN firing and passive properties” value (50 µM FLPK vs 0.1% DMSO) is “significantly increased the number of evoked action potentials and the instantaneous firing frequency; also recorded: no changes in several other electrophysiological parameters including membrane potential and input resistance; also recorded: increase in the total number of action potentials as well as instantaneous firing frequency”. Besides, the “Tau (τ), membrane time constant” value (50 µM FLPK, 30 min incubation, mean ± SEM, n = 5–12, DMSO 16.1 ± 2.1, p = .157) is given as 11.9 ± 1.6 ms. Further, the Cm (50 µM FLPK, 30 min incubation, mean ± SEM, n = 5–12, DMSO 90.2 ± 14.5, p = .521) is 80.1 ± 7.6 pF. Besides, the Ithr (50 µM FLPK, 30 min incubation, mean ± SEM, n = 5–12, DMSO 110 ± 14.2, p = .221) came out at 78 ± 18.3 pA. The molecule further returned a Rin (50 µM FLPK, 30 min incubation, mean ± SEM, n = 5–12, DMSO 119.1 ± 10.3, p = .088) of 147.2 ± 11.3 MΩ. Moreover, for the setting “50 µM FLPK, 30 min incubation, mean ± SEM, n = 5–12, DMSO −40.5 ± 1.1, p = .422”, the Vthr is −38.7 ± 2.2 mV. For the same molecule, the RMP (50 µM FLPK, 30 min incubation, mean ± SEM, n = 5–12, DMSO −75.3 ± 1.5, p = .125) is on record as −79.7 ± 2.6 mV. The “number of evoked action potentials” value (50 µM FLPK, current step 180 pA, n = 7, DMSO 14.9 ± 2.3, n = 14, p < .016) came out at 23.7 ± 1.2. This molecule also registered an instantaneous firing frequency (50 µM FLPK, current step 180 pA, n = 7, DMSO 19.7 ± 2.6 Hz, n = 14, p < .0395) of 28.6 ± 2.1 Hz.

The record behind these values is paper PMC7363588, “Mapping of the FGF14:Nav1.6 complex interface reveals FLPK as a functionally active peptide modulating excitability” (Physiological Reports, 2020).
